From EP4678644A1, “SUBSTITUTED DIHYDROTHIENOPYRIMIDINE COMPOUND, PREPARATION METHOD THEREFOR, AND USE THEREOF” (Shanghai Yidi Biotechnology Co., Ltd., priority 2023, dated 2024)

How the values were obtained:
[1] = molecular target: T1, PDE4B2 (Homo sapiens, UniProt Q07343); test: PDE4B2 enzyme experiment (AMP-glo, cAMP substrate); format: biochemical
T1 construct: expressed in transfected cells; host or cells: Flp-In-293 (Flpin-293-PDE4B2 [sic])
Procedure: All compounds were dissolved in DMSO into 10 mM or 20 mM stock solutions. The compound to be tested was diluted with DMSO in a 3-fold gradient. 20 nL/well of the compound or a DMSO control was transferred to a 384-well plate by using Echo 550 instrument. The plate was sealed with a membrane and centrifuged for 1 minute. A 2x enzyme solution was prepared with an assay buffer, and 2 uL/well of the 2x enzyme solution was added, followed by equilibration at room temperature for 10 minutes. A 2x Cyclic-3',5'-AMP substrate solution was prepared with an assay buffer, and 2 uL/well of the 2x substrate solution was added, followed by incubation at room temperature for 60 minutes. 4 uL of AMP-glo reagent was added, followed by incubation at room temperature for 60 minutes. 8 ul of an AMP detection solution was added, followed by incubation at room temperature for 60 minutes. An RLU value was read on Envision 2105 plate reader. The RLU value represents the concentration of the product AMP. Inhibition rate % ^= (1 - (RLUpositive control - RLUcompound)/(RLUpositive control - RLUnegative control)) * 100. The IC50 value was then caulculated by Graphpad 8.0 software using Y = Bottom + (Top - Bottom)/(1 + 10^((LogIC50 - X) * HillSlope)).

[2] = molecular target: PDE4D2 (Homo sapiens, UniProt Q08499); test: PDE4D2 enzyme experiment (AMP-glo, cAMP substrate); format: biochemical; conditions: read-out: PDE4D2 IC50 Binding
From the text: Inhibition rate % ^= (1 - (RLUpositive control - RLUcompound)/(RLUpositive control - RLUnegative control)) * 100.

[3] = molecular target: T1, PDE4B2; test: PDE4B2 cell experiment (cAMP, Eu-cAMP tracer / Ulight-anti-cAMP); format: cell-based; conditions: Flpin-293-PDE4B2 cells; for IC50: Foskolin
Procedure: All compounds were dissolved in DMSO into 10 mM or 20 mM stock solutions. The compound to be tested was diluted with DMSO with a 3-fold gradient. […] 40 nL/well of the compound or a DMSO control was transferred to a 384-well plate by using Echo 550 instrument. […] The plate was incubated at 37°C for 30 minutes. Eu-cAMP tracer and Ulight-anti-cAMP were frozen and thawed and diluted in a lysis buffer. 10 of µl Eu-cAMP tracer was added to an experimental well, and 10 µl of Ulight-anti-cAMP was added to the experimental well. The reaction plate was centrifuged at 200 g at room temperature for 30 s and then left to stand at 25°C for 1 h, and data was then collected by Envision. Inhibition % = 100 - (Signal compound - SignalAve positive control)/(SignalAve negative control - SignalAve positive control) × 100. Graphpad 8.0 software was then used to obtain an IC50 value by calculation using Y = Bottom + (Top - Bottom)/(1 + 10^((LogIC50 - X) * HillSlope)).

PDE4D2, sequence (Q08499 303-809 limits assumed): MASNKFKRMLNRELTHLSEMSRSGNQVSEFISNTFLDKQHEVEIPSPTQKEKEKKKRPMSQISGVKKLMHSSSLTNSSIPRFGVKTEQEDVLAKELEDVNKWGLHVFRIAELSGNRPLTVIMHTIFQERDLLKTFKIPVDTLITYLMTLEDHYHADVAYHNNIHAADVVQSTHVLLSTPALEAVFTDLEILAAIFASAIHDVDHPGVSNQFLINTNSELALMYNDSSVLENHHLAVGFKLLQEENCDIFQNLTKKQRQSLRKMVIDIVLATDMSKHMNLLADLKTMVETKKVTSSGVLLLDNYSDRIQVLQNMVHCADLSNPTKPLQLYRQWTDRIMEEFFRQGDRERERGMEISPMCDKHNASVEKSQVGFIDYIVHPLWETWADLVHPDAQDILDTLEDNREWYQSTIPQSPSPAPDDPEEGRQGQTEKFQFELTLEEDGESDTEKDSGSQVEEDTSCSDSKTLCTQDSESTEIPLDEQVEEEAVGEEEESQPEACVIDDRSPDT
T1 sequence (Q07343 1-564 isoform Q07343-2): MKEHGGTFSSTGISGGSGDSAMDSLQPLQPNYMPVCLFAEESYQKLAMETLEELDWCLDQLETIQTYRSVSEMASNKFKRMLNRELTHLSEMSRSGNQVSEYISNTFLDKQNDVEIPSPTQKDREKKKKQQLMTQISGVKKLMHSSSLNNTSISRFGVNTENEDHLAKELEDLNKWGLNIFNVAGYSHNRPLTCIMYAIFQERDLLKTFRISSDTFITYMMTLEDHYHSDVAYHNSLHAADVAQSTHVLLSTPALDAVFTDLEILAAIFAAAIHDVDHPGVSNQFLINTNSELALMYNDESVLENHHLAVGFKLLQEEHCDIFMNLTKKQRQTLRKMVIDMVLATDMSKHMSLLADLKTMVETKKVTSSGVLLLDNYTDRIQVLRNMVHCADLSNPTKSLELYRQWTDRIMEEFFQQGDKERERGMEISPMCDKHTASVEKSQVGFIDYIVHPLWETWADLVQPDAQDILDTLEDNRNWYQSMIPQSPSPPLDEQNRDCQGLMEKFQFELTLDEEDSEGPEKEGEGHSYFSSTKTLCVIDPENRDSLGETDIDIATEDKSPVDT

Row | Structure (SMILES) | IC50 [1] | IC50 [2] | Cell Inhibition% @10 nM [3] | Cell Inhibition% @100 nM [3] | Cell Inhibition% @1 nM [3] | IC50 [3]
1 | [O-][S+]1CCc2nc(N3CCc4cc(C(F)(F)F)ccc4C3)nc(NC3(CO)CCC3)c21 (stereo not drawn) [Compound 52] | 0.488 nM | 0.826 nM | 81.81% | 99.55% |  | 
2 | [O-][S+]1CCc2nc(N3CCc4cc(-c5cnco5)ccc4C3)nc(NC3(CO)CCC3)c21 (stereo not drawn) [Compound 85] | 0.085 nM | 0.157 nM | 97.0% | 101.1% | 41.7% | 
3 | CN1CCN(c2ccc3c(c2)CCN(c2nc4c(c(NC5(CO)CCC5)n2)[S+]([O-])CC4)C3)C1=O (stereo not drawn) [Compound 86] | 0.24 nM | 0.481 nM | 63.13% | 97.77% | 8.69% | 
4 | [O-][S+]1CCc2nc(N3CCc4c(c(NCCO)nc5cc(Cl)ccc45)C3)nc(NC3(CO)CCC3)c21 (stereo not drawn) [Compound 103] | 0.338 nM | 0.873 nM | 38.89% | 95.41% | 2.83% | 
5 | [O-][S+]1CCc2nc(N3CCc4cc(N5CC(F)C5)ccc4C3)nc(NC3(CO)CCC3)c21 (stereo not drawn) [Compound 89] | 0.705 nM | 1.63 nM | 37.42% | 95.32% | 3.47% | 
6 | COc1ccc2sc3c(c2c1)CCN(c1nc2c(c(NC4(CO)CCC4)n1)[S+]([O-])CC2)C3 (stereo not drawn) [Compound 82] | 0.366 nM | 0.764 nM | 77.47% | 99.87% | 19.08% | 
7 | O=[N+]([O-])c1ccc2c(c1)CCN(c1nc3c(c(NC4(CO)CCC4)n1)[S+]([O-])CC3)C2 (stereo not drawn) [Compound 27] | 0.55 nM | 0.88 nM |  |  |  | 8.11 nM
8 | [O-][S@+]1CCc2nc(N3CCn4c(nc5ccc(Cl)cc54)C3)nc(NC3(CO)CCC3)c21 [Compound 6, (R)-2-(7-chloro-3,4-dihydrobenzo[4,5]imidazo[1,2-a]pyrazin-2(1H)-yl)-4-((1-(hydroxymethyl)cyclobutyl)amino)-6,7-dihydrothieno[3,2-d]pyrimidine 5-oxide] | 0.41 nM | 0.473 nM |  |  |  | 8.2 nM
9 | CS(=O)(=O)c1ccc2c(c1)CCN(c1nc3c(c(NC4(CO)CCC4)n1)[S+]([O-])CC3)C2 (stereo not drawn) [Compound 93] | 0.344 nM | 0.603 nM | 61.02% | 94.24% | 14.02% | 
10 | [O-][S@+]1CCc2nc(N3CCc4nn5cc(Cl)cnc5c4C3)nc(NC3(CO)CCC3)c21 [Compound 4] | 2.71 nM | 7.25 nM |  |  |  | 29.6 nM
11 | [O-][S+]1CCc2nc(N3CCc4ncsc4C3)nc(NC3(CO)CCC3)c21 (stereo not drawn) [Compound 15] | 20.4 nM | 28.6 nM |  |  |  | 150 nM
12 | [O-][S+]1CCc2nc(N3CCc4cc5c(cc4C3)OCO5)nc(NC3(CO)CCC3)c21 (stereo not drawn) [Compound 35] | 1.32 nM | 3.89 nM |  |  |  | 46.1 nM
13 | [O-][S+]1CCc2nc(N3CCc4cc(I)ccc4C3)nc(NC3(CO)CCC3)c21 (stereo not drawn) [Compound 67] | 0.332 nM | 0.655 nM | 47.36% | 96.42% | 14.20% | 
14 | [O-][S+]1CCc2nc(N3Cc4ccc(Br)cc4C3)nc(NC3(CO)CCC3)c21 (stereo not drawn) [Compound 59] | 2.12 nM | 4.75 nM | 42.65% | 85.82% |  | 
15 | [O-][S+]1CCc2nc(N3Cc4nn5cc(Cl)cnc5c4C3)nc(NC3(CO)CCC3)c21 (stereo not drawn) [Compound 2] | 19.3 nM | 60.1 nM |  |  |  | 418 nM
16 | [O-][S+]1CCc2nc(N3CCc4c(ncc5cc(Cl)ccc45)C3)nc(NC3(CO)CCC3)c21 (stereo not drawn) [Compound 100] | 0.426 nM | 1.15 nM | 47.68% | 97.30% | 6.00% | 
17 | [O-][S+]1CCc2nc(N3CCc4cc(N5CCCC5)ccc4C3)nc(NC3(CO)CCC3)c21 (stereo not drawn) [Compound 92] | 0.161 nM | 0.776 nM | 43.69% | 98.17% | 3.35% | 
18 | Cn1c2c(c3ccc(Cl)cc3c1=O)CCN(c1nc3c(c(NC4(CO)CCC4)n1)[S+]([O-])CC3)C2 (stereo not drawn) [Compound 98] | 0.889 nM | 2.04 nM | 46.69% | 95.76% | -1.71% | 
19 | [O-][S+]1CCc2nc(N3CC[C@@H]4c5cccc(Cl)c5OC[C@H]4C3)nc(NC3(CO)CCC3)c21 (stereo partly drawn) [Compound 107] | 1.14 nM | 2.95 nM | 52.48% | 98.12% | 2.82% | 
20 | [O-][S+]1CCc2nc(N3CCc4cc(-n5ccnc5)ccc4C3)nc(NC3(CO)CCC3)c21 (stereo not drawn) [Compound 90] | 0.19 nM | 0.385 nM | 65.79% | 97.23% | 14.99% | 
21 | [O-][S+]1CCc2nc(N3CCc4c(nn5cc(F)ccc45)C3)nc(NC3(CO)CCC3)c21 (stereo not drawn) [Compound 32] | 0.201 nM | 0.405 nM | 74.22% | 97.65% | 23.54% | 
22 | [O-][S+]1CCc2nc(N3CCc4cc(Cl)c(Cl)cc4C3)nc(NC3(CO)CCC3)c21 (stereo not drawn) [Compound 26] | 0.77 nM | 2.51 nM |  |  |  | 19.7 nM
23 | Cc1nc2c(s1)CN(c1nc3c(c(NC4(CO)CCC4)n1)[S+]([O-])CC3)CC2 (stereo not drawn) [Compound 16] | 10.7 nM | 17.3 nM |  |  |  | 78 nM
24 | Cn1cnc(-c2ccc3c(c2)CCN(c2nc4c(c(NC5(CO)CCC5)n2)[S+]([O-])CC4)C3)n1 (stereo not drawn) [Compound 94] | 0.0712 nM | 0.125 nM | 94.09% | 100.44% | 34.83% | 
25 | [O-][S+]1CCc2nc(N3CCc4cc(Br)ccc4C3)nc(NC3(CO)CCC3)c21 (stereo not drawn) [Compound 24] | 0.38 nM | 0.92 nM |  |  |  | 10.4 nM
